Data as given in ChEMBL document CHEMBL5154881, “Discovery of First-in-Class TAK1-MKK3 Protein-Protein Interaction (PPI) Inhibitor (R)-STU104 for the Treatment of Ulcerative Colitis through Modulating TNF-α Production” (J Med Chem, 2022).

Experiments:
[1] = test system: Mus musculus; assay: Antiinflammatory activity against IL-10-/- C57BL/6 mouse model of ulcerative colitis assessed as inhibition ratio of IL-6 mRNA expression in colon tissue at 10 mg/kg, IG via gavage and measured after 8 weeks by RT-qPCR analysis relative to control; assay type: functional; parameters: scale not given: the % may be the effect or the level left
[2] = AUC (0 to infinity) in 12 hr starved C57 mouse at 5 mg/kg, iv measured for 0.083 to 24 hrs post-dose by LC-MS-MS analysis; assay type: ADME, organism-based; parameters: time upper 24 hrs, time lower 0.083 hrs, dose 5 mg/kg, route iv; settings: in vivo
[3] = test system: Mus musculus; assay: Inhibition of MKK3-p38 MAPK-elF4E signaling pathway in C57BL/6 mouse model of acute ulcerative colitis assessed as decrease in DSS-induced MK2 phosphorylation in colon tissue administered intragastrically via gavage measured after 7 days by Western blot analysis; settings: dose 1-50 mg/kg, time 7.0 day, DDE = dose-dependent effect
[4] = test system: Mus musculus; assay: Inhibition of MKK3-p38 MAPK-elF4E signaling pathway in C57BL/6 mouse model of acute ulcerative colitis assessed as decrease in DSS-induced elF4E phosphorylation in colon tissue administered intragastrically via gavage measured after 7 days by Western blot analysis; settings: dose 1-50 mg/kg, time 7.0 day, DDE = dose-dependent effect
[5] = test system: Mus musculus; assay: Antiinflammatory activity against IL-10-/- C57BL/6 mouse model of ulcerative colitis assessed as inhibition ratio of IL-23 mRNA expression in colon tissue at 1 mg/kg, IG via gavage and measured after 8 weeks by RT-qPCR analysis relative to control; assay type: functional; parameters: scale not given: the % may be the effect or the level left
[6] = MRT (0 to infinity) in 12 hr starved C57 mouse at 5 mg/kg, iv measured for 0.083 to 24 hrs post-dose by LC-MS-MS analysis; assay type: ADME, organism-based; settings: in vivo, time 0.083-24 hrs
[7] = test system: Mus musculus; assay: Anti-ulcerative colitis activity in DSS-induced C57BL/6 mouse ulcerative colitis model assessed as histopathological score recovery ratio at 3 mg/kg, IG via gavage measured after 7 days by H and E staining method relative to control; assay type: functional; settings: time 7 day
[8] = test system: Mus musculus; assay: Antiinflammatory activity against IL-10-/- C57BL/6 mouse model of acute ulcerative colitis assessed as decrease in serum IL-6 levels administered intragastrically via gavage measured after 8 weeks by ELISA; assay type: functional, organism-based; settings: dose 3-10 mg/kg, route ig, DDE = dose-dependent effect
[9] = test system: Mus musculus; assay: Antiinflammatory activity against IL-10-/- C57BL/6 mouse model of ulcerative colitis assessed as inhibition ratio of TNF-alpha mRNA expression in colon tissue at 1 mg/kg, IG via gavage and measured after 8 weeks by RT-qPCR analysis relative to control; assay type: functional; parameters: scale not given: the % may be the effect or the level left
[10] = test system: Mus musculus; assay: Antiinflammatory activity against IL-10-/- C57BL/6 mouse model of acute ulcerative colitis assessed as decrease in serum IL-1beta levels administered intragastrically via gavage measured after 8 weeks by ELISA; assay type: functional, organism-based; settings: dose 3-10 mg/kg, route ig, DDE = dose-dependent effect
[11] = biological target: T1, Dual specificity mitogen-activated protein kinase kinase 3 (Mus musculus) (UniProt O09110); assay: Binding affinity to MKK3 in mouse RAW264.7 cells assessed as increase in thermal stability at 47 degC incubated for 24 hrs by CETSA; assay type: cell-based; settings: dose 1-64 µM, DDE = dose-dependent effect
T1 sequence (whole entry): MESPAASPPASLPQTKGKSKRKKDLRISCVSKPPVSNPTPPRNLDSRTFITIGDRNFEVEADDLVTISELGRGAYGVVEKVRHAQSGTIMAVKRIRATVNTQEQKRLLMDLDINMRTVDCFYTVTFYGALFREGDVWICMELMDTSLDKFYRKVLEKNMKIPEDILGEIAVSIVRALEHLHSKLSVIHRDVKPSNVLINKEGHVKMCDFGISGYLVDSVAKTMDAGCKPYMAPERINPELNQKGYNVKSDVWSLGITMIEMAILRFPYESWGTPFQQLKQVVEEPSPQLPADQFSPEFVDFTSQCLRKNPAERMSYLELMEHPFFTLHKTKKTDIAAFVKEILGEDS

[12] = test system: Mus musculus; assay: Antiinflammatory activity against IL-10-/- C57BL/6 mouse model of ulcerative colitis assessed as inhibition ratio of IL-1beta protein expression at 3 mg/kg, IG via gavage and measured after 8 weeks by ELISA relative to control; assay type: functional; parameters: scale not given: the % may be the effect or the level left
[13] = test system: Mus musculus; assay: Antiinflammatory activity against DSS-induced C57BL/6 mouse model of acute ulcerative colitis assessed as inhibition ratio of IL-23 protein expression at 3 mg/kg, IG via gavage measured after 7 days by ELISA relative to control; assay type: functional; parameters: scale not given: the % may be the effect or the level left; settings: time 7 day
[14] = test system: Mus musculus; assay: Antiinflammatory activity against DSS-induced C57BL/6 mouse model of acute ulcerative colitis assessed as inhibition ratio of TNF-alpha protein expression at 10 mg/kg, IG via gavage measured after 7 days by ELISA relative to control; assay type: functional; parameters: scale not given: the % may be the effect or the level left; settings: time 7 day
[15] = test system: RAW264.7; assay: Inhibition of MKK3-p38-elF4E signaling pathway in mouse RAW264.7 cells assessed as reduction in LPS-induced Mnk1 phosphorylation treated for 1.5 hrs followed by LPS treatment for 1 hr by Western blot analysis; assay type: cell-based; settings: dose 3.125-12.5 µmol/L, time 2.5 hrs, DDE = dose-dependent effect
[16] = test system: Mus musculus; assay: Antiinflammatory activity against IL-10-/- C57BL/6 mouse model of ulcerative colitis assessed as inhibition ratio of IL-1beta mRNA expression in colon tissue at 10 mg/kg, IG via gavage and measured after 8 weeks by RT-qPCR analysis relative to control; assay type: functional; parameters: scale not given: the % may be the effect or the level left
[17] = test system: Mus musculus; assay: Antiinflammatory activity against DSS-induced C57BL/6 mouse model of acute ulcerative colitis assessed as inhibition of TNF-alpha mRNA expression in colon tissue administered intragastrically via gavage measured after 7 days by RT-qPCR analysis; assay type: functional, organism-based; settings: route ig, time 7.0 day, DDE = dose-dependent effect
[18] = test system: Mus musculus; assay: Anti-ulcerative colitis activity against DSS-induced ulcerative colitis C57BL/6 mouse model assessed as body weight recovery rate at 1 mg/kg, IG via gavage administered for 7 days and measured everyday relative to control; assay type: functional; settings: time 7 day
[19] = test system: Mus musculus; assay: Anti-ulcerative colitis activity in IL-10-/- C57BL/6 mouse model of ulcerative colitis assessed as body weight recovery ratio at 3 mg/kg, IG via gavage for 8 weeks and measured everyday relative to control; assay type: functional
[20] = test system: Mus musculus; assay: Anti-ulcerative colitis activity against DSS-induced ulcerative colitis C57BL/6 mouse model assessed as reduction in DAI recovery score ratio at 3 mg/kg, IG via gavage administered for 7 days and measured everyday relative to control; assay type: functional; parameters: scale not given: the % may be the effect or the level left; settings: time 7 day
[21] = test system: Mus musculus; assay: Inhibition of MKK3-p38 MAPK-elF4E signaling pathway in C57BL/6 mouse model of acute ulcerative colitis assessed as decrease in DSS-induced MKK3 phosphorylation in colon tissue administered intragastrically via gavage measured after 7 days by Western blot analysis; settings: dose 1-50 mg/kg, time 7.0 day, DDE = dose-dependent effect
[22] = test system: Mus musculus; assay: Anti-ulcerative colitis activity against DSS-induced ulcerative colitis C57BL/6 mouse model assessed as reduction in DAI recovery score ratio at 50 mg/kg, IG via gavage administered for 7 days and measured everyday relative to control; assay type: functional; parameters: scale not given: the % may be the effect or the level left; settings: time 7 day
[23] = test system: Mus musculus; assay: Antiinflammatory activity against DSS-induced C57BL/6 mouse model of acute ulcerative colitis assessed as inhibition ratio of IL-6 protein expression at 10 mg/kg, IG via gavage measured after 7 days by ELISA relative to control; assay type: functional; parameters: scale not given: the % may be the effect or the level left; settings: time 7 day
[24] = test system: Mus musculus; assay: Antiinflammatory activity against DSS-induced C57BL/6 mouse model of acute ulcerative colitis assessed as inhibition ratio of IL-6 mRNA expression in colon tissue at 10 mg/kg, IG via gavage measured after 7 days by RT-qPCR analysis relative to control; assay type: functional; parameters: scale not given: the % may be the effect or the level left; settings: time 7 day

For `COc1ccc([C@H]2CC(=O)c3cc(OC)cc(OC)c32)cc1`, the Activity [1] was 48.6%, the AUC(0-inf) [2] was 8640 ng·h/mL and the inhibition [3] was “Dde”. The inhibition [4] was “Dde”, the Activity [5] was 31% and the MRT inf [6] was 7.32 h. The Activity [7] was 41.7%, the Activity [8] was “Dde” and the Activity [9] was 24.7%. For the same compound, the Activity [10] was “Dde”, the Activity [11] was “Dde” and the Activity [12] was 50%. For the same compound, the Activity [13] was 51.6%, the Activity [14] was 58.1% and the inhibition [15] was “Dde”. For the same compound, the Activity [16] was 43.8%, the Activity [17] was “Dde” and the Activity [18] was 22.7%. For the same compound, the Activity [19] was 14.8%, the Activity [20] was 40% and the inhibition [21] was “Dde”. For the same compound, the Activity [22] was 22.7%, the Activity [23] was 56.1% and the Activity [24] was 76%.
